Laboratory results as given in paper PMC8294059, “Identification and Immune Assessment of T Cell Epitopes in Five Plasmodium falciparum Blood Stage Antigens to Facilitate Vaccine Candidate Selection and Optimization” (Frontiers in Immunology, 2021).
Where a SMILES comes first, the peptide text is derived from it.

Each compound was assayed against HLA-B*4402 (Homo sapiens, UniProt P01889, A223V/A65T/A93T/A95T/D201E/D98Y/E176V/E187L/E204Q/E69K/G107R/H137Y/K202T/L105A/L119I/N104T/N87E/Q56L/Q94N/R106L/R155S/R180D/S101N/S121R/S35A/S48T/T118I/V36M/W191S/Y140D/Y91S) (assay: In vitro class I HLA binding assay (fluorescence polarization competition)). Details: allele B*4402; fluorescence polarization competition.
Procedure, shortened: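 Cell-free competition assay: HLA heat-treated 53°C for 15 min to strip endogenous peptides, then mixed with fluorescent high-affinity control peptide and test peptides for 72 h to equilibrium. Displacement read by fluorescence polarization as percent inhibition; IC50 derived from a concentration range.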
NEYSLFITS [RH5_464] was tested, and the “IC50 (nM), in vitro HLA binding affinity” value was “Non-binder”.

Same assay, conditions: allele B*4402; fluorescence polarization competition; read-out: IC50 (nM), in vitro HLA binding affinity
Compound `CC[C@H](C)[C@H](N)C(=O)N[C@@H](CCC(=O)O)C(=O)N[C@H](C(=O)N[C@H](C(=O)N[C@@H](CCC(=O)O)C(=O)N[C@@H](CCCNC(=N)N)C(=O)N[C@@H](CO)C(=O)N[C@@H](CC(N)=O)C(=O)N[C@@H](Cc1ccc(O)cc1)C(=O)O)C(C)C)[C@@H](C)CC` [AMA1_097] (H-IEIVERSNY-OH) has an IC50 of 8030 nM.
With `CSCC[C@H](NC(=O)[C@H](CCC(=O)O)NC(=O)[C@@H](N)CC(=O)O)C(=O)N[C@@H](CC(C)C)C(=O)N[C@@H](CC(=O)O)C(=O)N1CCC[C@H]1C(=O)N[C@@H](CCC(=O)O)C(=O)N[C@@H](C)C(=O)N[C@@H](CO)C(=O)N[C@@H](Cc1ccccc1)C(=O)O` [AMA1_593] (H-DEMLDPEASF-OH) the IC50 was 11500 nM.
`C[C@H](NC(=O)[C@H](CCCNC(=N)N)NC(=O)[C@H](CCCCN)NC(=O)[C@H](CCC(=O)O)NC(=O)[C@H](CCC(=O)O)NC(=O)CN)C(=O)N[C@@H](CO)C(=O)N[C@@H](Cc1c[nH]cn1)C(=O)N[C@H](C(=O)N[C@H](C(=O)O)[C@@H](C)O)[C@@H](C)O` [AMA1_604] (H-GEEKRASHTT-OH) was tested, and the IC50 was 10000 nM.
`CC[C@H](C)[C@H](NC(=O)[C@@H](NC(=O)[C@@H](NC(=O)[C@H](CCC(=O)O)NC(=O)[C@H](CO)NC(=O)[C@H](CC(N)=O)NC(=O)[C@H](CC(N)=O)NC(=O)[C@H](Cc1ccc(O)cc1)NC(=O)[C@H](CCC(=O)O)NC(=O)[C@@H](N)CCCCN)[C@@H](C)CC)[C@@H](C)O)C(=O)O` [CYRPA_142] (H-KEYNNSEITI-OH) showed an IC50 of 11000 nM.
Compound `CC[C@H](C)[C@H](NC(=O)[C@H](Cc1ccc(O)cc1)NC(=O)[C@H](CC(=O)O)NC(=O)[C@H](CO)NC(=O)[C@@H](NC(=O)[C@@H](NC(=O)[C@@H](NC(=O)[C@H](CCC(=O)O)NC(=O)[C@@H](N)CO)[C@@H](C)CC)[C@@H](C)O)[C@@H](C)CC)C(=O)O` [CYRPA_147] (H-SEITISDYI-OH) has an IC50 of 5380 nM.
With `CC(C)C[C@H](N)C(=O)N[C@@H](CCC(=O)O)C(=O)N[C@@H](Cc1ccccc1)C(=O)N[C@H](C(=O)N[C@@H](CS)C(=O)N[C@@H](CO)C(=O)N[C@@H](CC(N)=O)C(=O)N[C@@H](CCCNC(=N)N)C(=O)N[C@@H](CC(=O)O)C(=O)N[C@@H](Cc1ccccc1)C(=O)O)C(C)C` [CYRPA_264] (H-LEFVCSNRDF-OH) the IC50 was 7460 nM.
`CC[C@H](C)[C@H](NC(=O)[C@H](CCCNC(=N)N)NC(=O)[C@H](CC(N)=O)NC(=O)[C@H](Cc1ccccc1)NC(=O)[C@@H](NC(=O)[C@H](Cc1c[nH]cn1)NC(=O)[C@H](CCCCN)NC(=O)[C@H](CCSC)NC(=O)[C@H](CCC(=O)O)NC(=O)[C@@H](N)CCCCN)[C@@H](C)CC)C(=O)O` [RH5_415] (H-KEMKHIFNRI-OH) was tested, and the IC50 was 39200 nM.
`CC[C@H](C)[C@H](NC(=O)[C@H](CCC(=O)O)NC(=O)[C@@H](N)CC(N)=O)C(=O)N[C@@H](CC(=O)O)C(=O)N[C@@H](CCCCN)C(=O)N[C@@H](CC(C)C)C(=O)N[C@H](C(=O)N[C@@H](Cc1ccccc1)C(=O)N[C@@H](CO)C(=O)N[C@@H](CC(C)C)C(=O)O)[C@@H](C)O` [RIPR_0031] (H-NEIDKLTFSL-OH) gave an IC50 of 332000 nM.
`CC(C)C[C@H](NC(=O)[C@H](Cc1ccc(O)cc1)NC(=O)[C@H](Cc1c[nH]cn1)NC(=O)[C@@H](NC(=O)[C@H](CC(C)C)NC(=O)[C@H](CO)NC(=O)[C@H](CCCCN)NC(=O)[C@H](CC(N)=O)NC(=O)[C@H](CCC(=O)O)NC(=O)[C@@H](N)Cc1ccc(O)cc1)[C@@H](C)O)C(=O)O` [RIPR_0226] (H-YENKSLTHYL-OH) was tested, and the IC50 was 112000 nM.
For `CC[C@H](C)[C@H](NC(=O)[C@H](CC(=O)O)NC(=O)[C@H](CCC(N)=O)NC(=O)[C@@H](NC(=O)[C@H](CS)NC(=O)[C@H](CCCNC(=N)N)NC(=O)[C@H](Cc1ccc(O)cc1)NC(=O)[C@H](CC(N)=O)NC(=O)[C@H](CCC(=O)O)NC(=O)[C@@H](N)CCC(=O)O)[C@@H](C)O)C(=O)O` [RIPR_0283] (H-EENYRCTQDI-OH), the IC50 was 674000 nM.
In the case of `CC(C)C[C@H](NC(=O)[C@H](CC(N)=O)NC(=O)[C@H](CC(N)=O)NC(=O)[C@H](CCCCN)NC(=O)[C@H](Cc1ccc(O)cc1)NC(=O)[C@H](Cc1ccccc1)NC(=O)[C@H](CCCCN)NC(=O)[C@H](CCC(=O)O)NC(=O)[C@@H](N)CCCCN)C(=O)N[C@@H](Cc1ccc(O)cc1)C(=O)O` [RIPR_0378] (H-KEKFYKNNLY-OH), the IC50 is reported as 919000 nM.

These compounds were tested against HLA-DRB1*0301 (Homo sapiens, UniProt P01903+P01911, A100K/A102G/A103R/A169T/F55Y/I96L/K41T/L162R/M171V/P40S/Q125H/Q178H/Q39Y/R42S/S66N/T106N/T262R/W38E/Y61H) (assay: biochemical). Details: binding inhibition assay; NB = non-binder (no dose-dependent inhibition); read-out: DRB1*0303 IC50.
Sequence of HLA-DRB1*0301 (P01903 26-254 limits assumed, other chains not shown): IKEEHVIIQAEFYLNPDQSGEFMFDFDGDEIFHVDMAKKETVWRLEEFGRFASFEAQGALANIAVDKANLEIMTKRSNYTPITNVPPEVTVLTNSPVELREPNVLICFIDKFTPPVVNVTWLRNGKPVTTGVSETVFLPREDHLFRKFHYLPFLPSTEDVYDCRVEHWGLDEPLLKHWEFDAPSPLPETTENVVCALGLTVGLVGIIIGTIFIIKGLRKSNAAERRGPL
Assay type: binding
In the case of `CC[C@H](C)[C@H](NC(=O)[C@H](CC(N)=O)NC(=O)[C@H](CC(N)=O)NC(=O)[C@H](Cc1ccccc1)NC(=O)[C@H](CC(N)=O)NC(=O)[C@H](CC(N)=O)NC(=O)[C@H](CC(N)=O)NC(=O)[C@H](CC(N)=O)NC(=O)[C@H](CO)NC(=O)[C@H](CCCNC(=N)N)NC(C)=O)C(=O)N1CCC[C@H]1C(=O)N[C@@H](CO)C(=O)N[C@@H](CCCNC(=N)N)C(=O)N[C@@H](Cc1ccc(O)cc1)C(=O)N[C@@H](CC(N)=O)C(=O)N[C@@H](CC(C)C)C(=O)N[C@@H](Cc1ccc(O)cc1)C(=O)N[C@@H](CC(=O)O)C(N)=O` [EBA175_017B] (Ac-RSNNNNFNNIPSRYNLYD-NH2), the IC50 is reported as > 100 µM.

What follows are compounds tested against HLA-DRB1*1301 (Homo sapiens, UniProt P01903+P01911, A100E/A169T/K41T/L162R/M171V/P40S/Q125H/Q178H/Q39Y/Q99D/R42S/S66N/T262R/W38E/Y61H) (assay: biochemical). Details: binding inhibition assay; NB = non-binder (no dose-dependent inhibition); read-out: DRB1*1301 IC50.
Assay type: binding
Procedure, shortened: (§1)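 Peptides were titrated (final 100,000 nM down to 100 nM) in competition with a labeled reference binder for commercial HLA-DRB1 monomers.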
For `CC[C@H](C)[C@H](NC(=O)[C@H](CC(N)=O)NC(=O)[C@H](CC(N)=O)NC(=O)[C@H](Cc1ccccc1)NC(=O)[C@H](CC(N)=O)NC(=O)[C@H](CC(N)=O)NC(=O)[C@H](CC(N)=O)NC(=O)[C@H](CC(N)=O)NC(=O)[C@H](CO)NC(=O)[C@H](CCCNC(=N)N)NC(C)=O)C(=O)N1CCC[C@H]1C(=O)N[C@@H](CO)C(=O)N[C@@H](CCCNC(=N)N)C(=O)N[C@@H](Cc1ccc(O)cc1)C(=O)N[C@@H](CC(N)=O)C(=O)N[C@@H](CC(C)C)C(=O)N[C@@H](Cc1ccc(O)cc1)C(=O)N[C@@H](CC(=O)O)C(N)=O` [EBA175_017B] (Ac-RSNNNNFNNIPSRYNLYD-NH2), the IC50 was > 100 µM.

What follows are compounds tested against T1, HLA-DRB1*0101 (Homo sapiens, UniProt P01903+P01911, A100R/D57E/F55L/F60I/F76Y/I96L/L162R/M171V/P40L/Q125E/R42F/V115G/Y59C) (assay: biochemical). Details: binding inhibition assay; NB = non-binder (no dose-dependent inhibition); read-out: DRB1*0101 IC50.
T1 construct: purchased
Assay type: binding
Procedure, shortened: as §1
With `CC[C@H](C)[C@H](NC(=O)[C@H](CC(N)=O)NC(=O)[C@H](CC(N)=O)NC(=O)[C@H](Cc1ccccc1)NC(=O)[C@H](CC(N)=O)NC(=O)[C@H](CC(N)=O)NC(=O)[C@H](CC(N)=O)NC(=O)[C@H](CC(N)=O)NC(=O)[C@H](CO)NC(=O)[C@H](CCCNC(=N)N)NC(C)=O)C(=O)N1CCC[C@H]1C(=O)N[C@@H](CO)C(=O)N[C@@H](CCCNC(=N)N)C(=O)N[C@@H](Cc1ccc(O)cc1)C(=O)N[C@@H](CC(N)=O)C(=O)N[C@@H](CC(C)C)C(=O)N[C@@H](Cc1ccc(O)cc1)C(=O)N[C@@H](CC(=O)O)C(N)=O` [EBA175_017B] (Ac-RSNNNNFNNIPSRYNLYD-NH2) the IC50 was 0.43 µM.

What follows are compounds tested against T2, HLA-DRB1*1501 (Homo sapiens, UniProt P01903+P01911) (assay: biochemical). Details: binding inhibition assay; NB = non-binder (no dose-dependent inhibition); read-out: DRB1*1501 IC50.
T2 construct: purchased
Assay type: binding
Procedure, shortened: as §1
`CC[C@H](C)[C@H](NC(=O)[C@H](CC(N)=O)NC(=O)[C@H](CC(N)=O)NC(=O)[C@H](Cc1ccccc1)NC(=O)[C@H](CC(N)=O)NC(=O)[C@H](CC(N)=O)NC(=O)[C@H](CC(N)=O)NC(=O)[C@H](CC(N)=O)NC(=O)[C@H](CO)NC(=O)[C@H](CCCNC(=N)N)NC(C)=O)C(=O)N1CCC[C@H]1C(=O)N[C@@H](CO)C(=O)N[C@@H](CCCNC(=N)N)C(=O)N[C@@H](Cc1ccc(O)cc1)C(=O)N[C@@H](CC(N)=O)C(=O)N[C@@H](CC(C)C)C(=O)N[C@@H](Cc1ccc(O)cc1)C(=O)N[C@@H](CC(=O)O)C(N)=O` [EBA175_017B] (Ac-RSNNNNFNNIPSRYNLYD-NH2) showed an IC50 of 23.6 µM.
